Reference: patent US5714494A, “Xanthines in the 7th position with a benzyl acetic acid moiety” (Bayer Aktiengesellschaft, priority 1995, dated 1998)

Assays:
[1] = test system: VLDL secretion; experiment: Inhibition of VLDL secretion in vivo (rat) (Triton rat); conditions: for inhibition in vivo at 3 mg/kg: (n.s.) for 112, 114, 117, 154, 175, 176, 227, read-out: Triton rat % TG inhibition (p.o.) 2 h after substance
Protocol: The action of the test substances on VLDL secretion is also investigated in the rat. To do this, 500 mg/kg of body weight (2.5 ml/kg) of Triton WR-1339, dissolved in physiological saline solution, are administered to rats intravenously in the tail vein. Triton WR-1339 inhibits lipoprotein lipase and thus leads through inhibition of VLDL catabolism to an increase in the triglyceride and cholesterol level. These increases can be used as a measure of the VLDL secretion rate.
Blood is taken from the animals before and one and two hours after administration of the detergent by puncture of the retroorbital venous plexus. The blood is incubated at room temperature for 1 h for clotting and the serum is recovered by centrifugation at 10,000 g for 20 s. The triglycerides are then determined photometrically at a wavelength of 540 nm by means of a commercially available coupled enzyme test (Sigma Diagnostics®, No. 339). Measurement is carried out with the aid of a likewise coupled enzyme test (Boehringer Mannheim®, No. 1442350) at a wavelength of 546 nm. Samples with triglyceride or cholesterol concentrations which exceed the measuring range of the methods are diluted with physiological saline solution. The respective serum concentrations are determined with the aid of standard series measured in parallel. Test substances are administered orally, intravenously or subcutaneously immediately after the Triton injection.

[2] = test system: intestinal triglyceride absorption; experiment: Inhibition of intestinal triglyceride absorption in vivo (rats); set-up: species or system male Wistar rats; conditions: po; for ED50: Rattus norvegicus, serum triglyceride increase 2 h after triglyceride loading, fasting rats, read-out: Absorption ED50 or % inhibition; for Absorption ED50 or % inhibition: 2 h
Protocol: The substances which are to be investigated for their triglyceride absorption-inhibiting action in vivo are administered orally to male Wistar rats having a body weight of between 170 and 230 g. For this purpose, the animals are divided into groups of 6 animals 18 hours before administration of the substance and the feed is then withdrawn from them. Drinking water is available to the animals ad libitum. The animals of the control groups receive an aqueous tragacanth suspension or a tragacanth suspension which contains olive oil. The tragacanth-olive oil suspension is prepared using an Ultra-Turrax. The substances to be investigated are suspended directly before substance administration in a corresponding tragacanth-olive oil suspension, also using an Ultra-Turrax.
Before stomach tube application, blood is taken from each rat by puncture of the retroorbital venous plexus to determine the basal serum triglyceride content. The tragacanth suspension, the tragacanth-olive oil suspensions without substance (control animals) and the substances suspended in a corresponding tragacanth-olive oil suspension are then administered to the fasting animals using a stomach tube. Further taking of blood for the determination of the postprandial serum triglyceride rise is carried out, as a rule, 1,2 and 3 hours after stomach tube application.
The blood samples are centrifuged and, after recovering the serum, the triglycerides are determined photometrically using an EPOS analyzer 5060 (Eppendorf Geratebau, Netheler & Hinz GmbH, Hamburg). The triglycerides are determined by fully enzymatic means using a commercially available UV test.
The postprandial serum triglyceride increase is determined by subtraction of the triglyceride preliminary value of each animal from its corresponding postprandial triglyceride concentrations (1,2 and 3 hours after administration).
The differences (in mmol/l) at each time 1, 2 and 3 hours) are averaged in the groups, and the average values of the serum triglyceride increase (ΔTG) of the substance-treated animals are compared with the animals which only received the tragacanth-oil suspension.
Likewise, the serum triglyceride course of the control animals which received only tragacanth is calculated. The substance effect at each time (1, 2 or 3 hours) is determined as follows and given in Δ% of the oil-loaded control. [formula]
Effect of 10 mg of test substance/kg of body weight p.o. on the triglyceride increase (Δ%) 2 h after a triglyceride loading in the serum of fasting rats. The serum triglyceride increase of fat-loaded control animals based on the serum triglyceride level of tragacanth control animals corresponds to 100%. n=6 animals per group.
Statistical assessment was carried out using student3 s t test after prior checking of the variances for homogeneity.

[3] = test system: ApoB-100-associated lipoproteins; experiment: Inhibition of the release of ApoB-100-associated lipoproteins from HepG2 cells (immunoassay for human LDL); format: cell-based; conditions: light absorption 450 nm vs solvent control
Protocol: The test for detecting inhibition of the release of ApoB-100-associated lipoproteins from liver cells was carried out in vitro using cultured liver cells, preferably using cells of the human line HepG2. These cells are grown under standard conditions in medium for the culture of eucaryotic cells, preferably in RPMI 1640 using 10% foetal calf serum. HepG2 cells synthesize and secrete into the culture supernatant ApoB-100-associated lipoprotein particles which in principle are synthesized in a similar manner to the VLDL and LDL particles which are to be found in the plasma.
These particles can be detected using an immunoassay for human LDL. This immunoassay is carried out using antibodies which have been induced in the rabbit against human LDL under standard conditions. The anti-LDL antibodies (rabbit anti-LDL-Ab) were purified by affinity chromatography on an immunosorbent using human LDL. These purified rabbit anti-LDL Ab are adsorbed on the surface of plastic. Expediently, this adsorption is carried out on the plastic surface of microtitre plates having 96 wells, preferably on MaxiSorp plates. If ApoB-100-associated particles are present in the supernatant of Hep-G2 cells, these can bind to the insolubilized rabbit anti-LDL Ab, and an immune complex is formed which is bound to the plastic surface. Unbound proteins are removed by washing. The immune complex located on the plastic surface is detected using monoclonal antibodies which have been induced against human LDL according to standard conditions and purified. These antibodies were conjugated with the enzyme peroxidase. Peroxidase converts the colourless substrate TMB into a coloured product in the presence of H2 O2. After acidification of the reaction mixture using H2 SO4, the specific light absorption at 450 mn is determined, which is a measure of the amount of ApoB-100-associated particles which have been secreted into the culture supernatant by the HepG2 cells.
The IC50 value indicates at which substance concentration the light absorption is inhibited by 50% in comparison with the control (solvent control without substance).

[4] = Rattus norvegicus, po, 2 h, 3 mg/kg p.o.
[5] = Homo sapiens, HepG2, HepG2 cells

| IC50 [3, 5] [µM] | Structure (SMILES) | Absorption ED50 or % inhibition [2] [mg/kg] | further results |
| --- | --- | --- | --- |
| 0.014 | Cn1c(=O)c2c(nc(Cc3cccc(Cl)c3)n2Cc2ccc(C(C(=O)N[C@@H](CO)c3ccccc3)C3CCCC3)cc2)n(C)c1=O (stereo partly shown) [Example 191] | > 3 |  |
| 0.012 | Cc1ccc(Cc2nc3c(c(=O)n(C)c(=O)n3C)n2Cc2ccc(C(C(=O)N[C@@H](CO)c3ccccc3)C3CCCC3)cc2)cc1 (stereo partly shown) [Example 182] | 2 |  |
| 0.005 | Cn1c(=O)c2c(nc(Cc3ccccc3)n2Cc2ccc(C(C(=O)N[C@@H](CO)c3ccccc3)C3CCCCCC3)cc2)n(C)c1=O (stereo partly shown) [Example 174] | < 2 |  |
| 0.011 | COc1ccc(Cc2nc3c(c(=O)n(C)c(=O)n3C)n2Cc2ccc(C(C(=O)N[C@@H](CO)c3ccccc3)C3CCCC3)cc2)cc1 (stereo partly shown) [Example 201] | > 3 |  |
| 0.005 | Cc1cccc(Cc2nc3c(c(=O)n(C)c(=O)n3C)n2Cc2ccc(C(C(=O)N[C@@H](CO)c3ccccc3)C3CCCC3)cc2)c1 (stereo partly shown) [Example 179] | > 3 |  |
| 0.064 | Cc1ccccc1Cc1nc2c(c(=O)n(C)c(=O)n2C)n1Cc1ccc(C(C(=O)N[C@@H](CO)c2ccccc2)C2CCCC2)cc1 (stereo partly shown) [Example 178] | 3 |  |
| 0.043 | COc1ccccc1Cc1nc2c(c(=O)n(C)c(=O)n2C)n1Cc1ccc(C(C(=O)N[C@@H](CO)c2ccccc2)C2CCCC2)cc1 (stereo partly shown) [Example 197] | 3 |  |
| 0.032 | Cn1c(=O)c2c(nc(Cc3ccccc3)n2Cc2ccc(C(C(=O)N[C@@H](CO)c3ccccc3)C3CCCCCC3)cc2)n(C)c1=O (single isomer, unassigned) [Example 175] |  | inhibition in vivo at 3 mg/kg [1, 4]: 9.8% |
| 0.003 | CCc1nc2c(c(=O)n(CC)c(=O)n2CC)n1Cc1ccc(C(C(=O)N[C@@H](CO)c2ccccc2)C2CCCC2)cc1 (stereo partly shown) [Example 215] |  |  |

Further lines, the compound ahead of its results:

| Structure (SMILES) | IC50 [3, 5] [µM] | Absorption ED50 or % inhibition [2] [mg/kg] | further results |
| --- | --- | --- | --- |
| Cn1c(=O)c2c(nc(Br)n2Cc2ccc(C(C(=O)N[C@@H](CO)c3ccccc3)C3CCCC3)cc2)n(C)c1=O (single isomer, unassigned) [Example 117] |  |  | inhibition in vivo at 3 mg/kg [1, 4]: 25%; ED50 [2]: 3 mg/kg; IC50 ([3]; HepG2 cells): 0.003 µM |
| Cn1c(=O)c2c(nc(-c3ccccn3)n2Cc2ccc(C(C(=O)N[C@@H](CO)c3ccccc3)C3CCCC3)cc2)n(C)c1=O (stereo partly shown) [Example 151] | 0.034 | 6 |  |
| Cn1c(=O)c2c(nc(-c3ccccc3)n2Cc2ccc(C(C(=O)N[C@@H](CO)c3ccccc3)C3CCCC3)cc2)n(C)c1=O (single isomer, unassigned) [Example 130] |  |  | inhibition in vivo at 20 mg/kg ([1]; Rattus norvegicus, po, 2 h, 20 mg/kg p.o., read-out: Triton rat % TG inhibition (p.o.) 2 h after substance): 36%; ED50 [2]: 5 mg/kg; IC50 ([3]; HepG2 cells): 0.025 µM |
| Cn1c(=O)c2c(ncn2Cc2ccc(C(C(=O)N[C@@H](CO)c3ccccc3)C3CCCC3)cc2)n(C)c1=O (single isomer, unassigned) [Example 114] |  |  | inhibition in vivo at 3 mg/kg [1, 4]: 14.1%; ED50 [2]: < 2 mg/kg; IC50 ([3]; HepG2 cells): 0.039 µM |
| Cc1ccsc1-c1nc2c(c(=O)n(C)c(=O)n2C)n1Cc1ccc(C(C(=O)N[C@@H](CO)c2ccccc2)C2CCCC2)cc1 (stereo partly shown) [Example 160] | 0.005 | 3 |  |
| Cn1c(=O)c2c(nc(CC3CCCCC3)n2Cc2ccc(C(C(=O)N[C@@H](CO)c3ccccc3)C3CCCC3)cc2)n(C)c1=O (stereo partly shown) [Example 123] | 0.008 |  | ED50 [2]: 2 mg/kg |
| COc1ccc(-c2nc3c(c(=O)n(C)c(=O)n3C)n2Cc2ccc(C(C(=O)N[C@@H](CO)c3ccccc3)C3CCCC3)cc2)cc1 (stereo partly shown) [Example 146] | 0.006 | > 3 |  |
| Cn1c(=O)c2c(nc(-c3ccc(Cl)cc3)n2Cc2ccc(C(C(=O)N[C@@H](CO)c3ccccc3)C3CCCC3)cc2)n(C)c1=O (stereo partly shown) [Example 140] | 0.01 | > 3 |  |
| Cc1cccc(-c2nc3c(c(=O)n(C)c(=O)n3C)n2Cc2ccc(C(C(=O)N[C@@H](CO)c3ccccc3)C3CCCC3)cc2)c1 (stereo partly shown) [Example 133] | 0.005 | 2 |  |
| Cn1c(=O)c2c(nc(Cc3ccccc3)n2Cc2ccc(C(C(=O)N[C@@H](CO)c3ccccc3)C3CCCCCC3)cc2)n(C)c1=O (single isomer, unassigned) [Example 176] |  |  | Triton rat % TG inhibition (p.o.) 2 h after substance ([1]; 3 mg/kg p.o., (n.s.) for 112, 114, 117, 154, 175, 176, 227): 6.2%; IC50 ([3]; HepG2 cells): 0.019 µM |
| Cn1c(=O)c2c(nc(C=Cc3ccccc3)n2Cc2ccc(C(C(=O)N[C@@H](CO)c3ccccc3)C3CCCC3)cc2)n(C)c1=O (stereo partly shown) [Example 167] | 0.019 | > 2 |  |
| Cn1c(=O)c2c(nc(-c3ccc(C(F)(F)F)cc3)n2Cc2ccc(C(C(=O)N[C@@H](CO)c3ccccc3)C3CCCC3)cc2)n(C)c1=O (stereo partly shown) [Example 143] | 0.011 | > 3 |  |
| Cn1c(=O)c2c(nc(-c3ccc(-c4ccccc4)cc3)n2Cc2ccc(C(C(=O)N[C@@H](CO)c3ccccc3)C3CCCC3)cc2)n(C)c1=O (stereo partly shown) [Example 139] | 0.09 |  |  |
| Cn1c(=O)c2c(nc(Cc3cccs3)n2Cc2ccc(C(C(=O)N[C@@H](CO)c3ccccc3)C3CCCC3)cc2)n(C)c1=O (stereo partly shown) [Example 126] | 0.041 |  |  |
| Cc1ccc(-c2nc3c(c(=O)n(C)c(=O)n3C)n2Cc2ccc(C(C(=O)N[C@@H](CO)c3ccccc3)C3CCCC3)cc2)c(C)c1 (stereo partly shown) [Example 138] | 0.403 |  |  |
| Cn1c(=O)c2c(nc(-c3cccs3)n2Cc2ccc(C(C(=O)N[C@@H](CO)c3ccccc3)C3CCCC3)cc2)n(C)c1=O (single isomer, unassigned) [Example 159] |  |  | IC50 ([3]; HepG2 cells): 0.025 µM |
| Cn1c(=O)c2c(nc(Cc3ccc(F)cc3)n2Cc2ccc(C(C(=O)N[C@@H](CO)c3ccccc3)C3CCCC3)cc2)n(C)c1=O (single isomer, unassigned) [Example 196] |  |  | IC50 ([3]; HepG2 cells): 0.061 µM |
| CN(C)c1ccc(-c2nc3c(c(=O)n(C)c(=O)n3C)n2Cc2ccc(C(C(=O)N[C@@H](CO)c3ccccc3)C3CCCC3)cc2)cc1 (stereo partly shown) [Example 149] | 0.009 | > 3 |  |
| Cn1c(=O)c2c(nc(Cc3ccccc3)n2Cc2ccc(C(C(=O)N[C@@H](CO)c3ccccc3)C3CCCCC3)cc2)n(C)c1=O (single isomer, unassigned) [Example 172] | 0.001 |  |  |
